The source of these data is publication PMC2783803 (Journal of medicinal chemistry, 2009).

Experiment [1] deals with mouse sweet receptor (mT1R2+mT1R3). Put plainly: Heterologous calcium mobilization assay, mouse sweet receptor. The experiment is classed as cell-based. As to conditions: activated by 2.5mM sucralose; inhibitor at ~5-times IC50.
Another experiment deals with T1, human T1R2+T1R3 receptor (Homo sapiens, UniProt Q7RTX0).
T1 sequence (Q7RTX0 21-852): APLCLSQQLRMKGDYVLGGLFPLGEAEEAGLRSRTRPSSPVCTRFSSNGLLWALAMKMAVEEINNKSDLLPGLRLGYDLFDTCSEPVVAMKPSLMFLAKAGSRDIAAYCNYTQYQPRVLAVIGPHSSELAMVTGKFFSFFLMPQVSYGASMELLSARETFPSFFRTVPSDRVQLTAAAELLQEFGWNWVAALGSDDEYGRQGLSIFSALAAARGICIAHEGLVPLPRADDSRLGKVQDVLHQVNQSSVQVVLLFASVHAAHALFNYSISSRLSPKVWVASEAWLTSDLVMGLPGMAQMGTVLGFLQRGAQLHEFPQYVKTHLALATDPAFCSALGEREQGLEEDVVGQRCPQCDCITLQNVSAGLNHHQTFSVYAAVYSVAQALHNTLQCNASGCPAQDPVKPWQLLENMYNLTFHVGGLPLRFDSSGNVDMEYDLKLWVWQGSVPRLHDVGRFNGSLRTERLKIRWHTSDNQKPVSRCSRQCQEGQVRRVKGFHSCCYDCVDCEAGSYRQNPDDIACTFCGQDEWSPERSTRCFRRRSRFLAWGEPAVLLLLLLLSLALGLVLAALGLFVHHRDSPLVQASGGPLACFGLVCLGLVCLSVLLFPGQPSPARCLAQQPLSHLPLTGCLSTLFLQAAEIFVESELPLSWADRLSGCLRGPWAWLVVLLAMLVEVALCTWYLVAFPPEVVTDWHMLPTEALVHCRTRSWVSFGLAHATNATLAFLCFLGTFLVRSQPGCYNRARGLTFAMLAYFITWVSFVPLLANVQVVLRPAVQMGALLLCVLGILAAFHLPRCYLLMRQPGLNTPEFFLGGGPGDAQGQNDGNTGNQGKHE
T1 sequence (Q8TE23 20-839 partner): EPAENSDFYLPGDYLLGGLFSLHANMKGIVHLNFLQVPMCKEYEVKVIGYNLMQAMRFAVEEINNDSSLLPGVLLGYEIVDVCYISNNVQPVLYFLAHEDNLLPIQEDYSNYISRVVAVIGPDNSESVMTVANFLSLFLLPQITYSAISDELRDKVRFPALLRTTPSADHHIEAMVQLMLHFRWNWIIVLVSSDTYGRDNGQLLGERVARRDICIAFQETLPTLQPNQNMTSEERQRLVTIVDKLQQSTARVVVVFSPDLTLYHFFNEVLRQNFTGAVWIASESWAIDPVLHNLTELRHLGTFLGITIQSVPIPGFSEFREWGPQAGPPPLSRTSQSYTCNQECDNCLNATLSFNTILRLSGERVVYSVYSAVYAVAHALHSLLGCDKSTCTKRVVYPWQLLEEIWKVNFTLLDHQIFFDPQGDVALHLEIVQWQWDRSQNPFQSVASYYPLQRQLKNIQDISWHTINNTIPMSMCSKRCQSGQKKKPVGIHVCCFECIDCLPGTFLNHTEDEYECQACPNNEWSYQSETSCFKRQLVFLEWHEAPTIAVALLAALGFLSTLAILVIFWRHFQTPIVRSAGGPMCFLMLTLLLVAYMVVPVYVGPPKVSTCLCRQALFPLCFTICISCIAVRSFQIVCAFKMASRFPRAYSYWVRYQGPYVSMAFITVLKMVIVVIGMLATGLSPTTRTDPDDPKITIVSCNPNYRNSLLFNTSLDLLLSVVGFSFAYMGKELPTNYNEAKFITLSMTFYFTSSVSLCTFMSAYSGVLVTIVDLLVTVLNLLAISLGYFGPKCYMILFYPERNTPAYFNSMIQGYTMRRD
Put plainly: Heterologous calcium mobilization assay, human sweet receptor in HEK293 cells. In kind it is cell-based.

In experiment [2] the test system is sweet and umami (MSG) taste. Put plainly: Psychophysical self-experimentation, taste inhibition in vivo. Also on record: species or system human. Conditions: self-experimentation by one author; data not shown.
For the next experiment, the system named is PPAR-alpha. As to conditions: read-out: EC50 for activating PPAR-alpha; cited from earlier work.

For `COc1ccc(OC(C)C(=O)O)cc1` (centres unmarked) [Lactisole, 2-(4-methoxyphenoxy) propanoic acid], the “effect on the mouse sweet receptor” value in experiment [1] is reported as “no effect”. In the case of `O=C(O)COc1ccc(Cl)cc1Cl` [2,4D, (2,4-dichlorophenoxy)acetic acid], at human T1R2+T1R3 receptor, the half-maximal inhibitory concentration (IC50) is 70 µM. Consider `CC(C)(Oc1ccc(Cl)cc1)C(=O)O` [Clofibric acid, 2-(4-chlorophenoxy)-2-methylpropanoic acid], for which, in experiment [2], the “inhibition of sweet taste in vivo” value is on record as “potently inhibited” and the “inhibition of umami (MSG) taste in vivo” value is given as “potently inhibited”. Also, the EC50 with PPAR-alpha is 50 to 55 µM.
